The source of these data is PMC7463582, “Modulation and Protection Effects of Antioxidant Compounds against Oxidant Induced Developmental Toxicity in Zebrafish” (Antioxidants, 2020).

For data set [1], the system named is zebrafish embryos. As to conditions: for Change of dysmorphogenic effects of LPS / Shift of the LPS lethality concentration–effect curve / Shift of the TCHQ concentration–response curves for lethality and dysmorphogenesis / Shift of the tBOOH concentration–response curves (lethality and dysmorphogenesis) / Mortality of embryos exposed to tBOOH after pre-exposure: pre-exposure to the modulator at MTC; for Change of dysmorphogenic effects of LPS / Shift of the LPS lethality concentration–effect curve: then LPS, versus LPS alone; for Shift of the TCHQ concentration–response curves for lethality and dysmorphogenesis: then TCHQ, versus TCHQ alone; for Shift of the tBOOH concentration–response curves (lethality and dysmorphogenesis) / Mortality of embryos exposed to tBOOH after pre-exposure: then tBOOH; for Shift of the tBOOH concentration–response curves (lethality and dysmorphogenesis): versus tBOOH alone.

Data set [2] concerns zebrafish embryos. Description: Zebrafish embryo test: lethality and dysmorphogenesis after exposure to a single oxidative stress-related compound. It is filed as in vivo, Zebrafish (Danio rerio). Particulars: for EC50: read-out: EC50 (effective concentration 50 for dysmorphogenesis). As to the method: (§1) To characterize the effects on embryonic development produced by compounds related to OS, ZF embryos were exposed to OS inducers, modulators of antioxidant status and antioxidants. For compounds which were dissolved in DMSO and diluted with Danieau’s buffer, a vehicle negative control group with 0.05% DMSO in 0.3× Danieau’s buffer was assayed.
(§2) From 26 to 50 hpf, embryos were incubated with 0.3× Danieau’s buffer with or without DMSO, depending on the dissolution of the compound of study.
(§3) Exposure to OS inducers was conducted from 26 to 50 hpf to select the working concentrations of these compounds for the experimental design. In this case, from 2 to 26 hpf, embryos were incubated with Danieau’s buffer with or without DMSO, depending on the dissolution of the compound of study.
(§4) Exposure of ZF embryos was semi-static and was carried out in 6-well plates (Greiner Bio-one, Frickenhausen, Germany). Ten embryos per group were selected and randomly distributed into the wells and filled with 5mL of the corresponding solution of the compound. Embryos were incubated at 26 ± 1 °C with a dark–light cycle of 10–14 h. Renewal of the medium and of the solutions was made every 24 h. Evaluation of the embryos was performed at different time points. Lethality was determined at 8, 26, and 50 hpf based on egg coagulation, the absence of tail detachment, or somite formation and the absence of heartbeat. Dysmorphogenic effects were evaluated at 50 hpf by the total morphological score system described by. For each compound of study, at least three independent experiments were performed using embryos from different spawning events (n = 3).
(§5) The percentage of lethality and of dysmorphogenesis was calculated per compound at every tested concentration, and the concentration–response curves for these effects were plotted.

Assay in data set [3]: as above
It counts as in vivo, Zebrafish (Danio rerio). As to conditions: zebrafish, in vivo, read-out: LC50 (lethal concentration 50). On the procedure: as §1, §2, §3, §4, §5

In data set [4] the test system is zebrafish embryos. Nature of the data set: animal or person. Particulars: Danio rerio.
For data set [5], the system named is zebrafish embryos. Description: animal or person. As to conditions: Danio rerio, read-out: EC50 (95% CI) for dysmorphogenesis of tBOOH.
Data set [6] is described as follows: in vivo. Particulars: zebrafish.
Where [7] appears, read: exposure window 2–26 hpf, not calculated, reason in footnote.
Where [8] appears, read: Danio rerio, exposure window 2–26 hpf, evaluated at 50 hpf.

Structures can show the parent of a compound that is named as a salt. Some results are limits rather than exact numbers.

With `CCCCS(=N)(=O)CCC(N)C(=O)O` (racemic) [DL-buthionine sulfoximine (BSO), DL-buthionine sulfoximine], in data set [1], the “Change of dysmorphogenic effects of LPS” value is given as “no significant effects were observed”; the “Shift of the LPS lethality concentration–effect curve” value is “shifted the lethality concentration–effect curves significantly”; the “Shift of the TCHQ concentration–response curves for lethality and dysmorphogenesis” value (“Shift … for lethality and dysmorphogenesis” for short) was “statistically significant drift in the concentration–effect curves for lethality and dysmorphogenesis to lower concentrations of TCHQ”; the “Shift of the tBOOH concentration–response curves (lethality and dysmorphogenesis)” value (shortened to “Shift … (lethality and dysmorphogenesis)”) is given as “a significant shift in the concentration–response curves to lower concentrations of tBOOH”. The “MTC (maximum tolerable concentration)” value in data set [2] (exposure window 2–26 hpf) was 50 µM. Also, the EC50 in data set [2] (exposure window 2–26 hpf, evaluated at 50 hpf) was 2720 µM.

As for `CCOC(=O)/C=C\C(=O)OCC` [Diethyl maleate (DEM), diethyl maleate], in data set [1], the “Change of dysmorphogenic effects of LPS” value is given as “no significant effects were observed”; the “Shift of the LPS lethality concentration–effect curve” value is reported as “shifted the lethality concentration–effect curves significantly”; the “Shift … for lethality and dysmorphogenesis” value was “statistically significant drift in the concentration–effect curves for lethality and dysmorphogenesis to lower concentrations of TCHQ”; the “Shift … (lethality and dysmorphogenesis)” value is “a significant shift in the concentration–response curves to lower concentrations of tBOOH”. For the same compound, the LC50 in data set [3] (setting [7]) was less than 100 µM. Besides, the EC50 in data set [2] (setting [8]) came out at 1.5 µM. For the same compound, in data set [2] (exposure window 2–26 hpf), the “MTC (maximum tolerable concentration)” value was 0.5 µM.

With `CC(=O)N[C@@H](CS)C(=O)O` [N-acetyl-L-cysteine (NAC), N-acetyl-L-cysteine], in data set [1], the “Change of dysmorphogenic effects of LPS” value is given as “no significant effects were observed” and the “Mortality of embryos exposed to tBOOH after pre-exposure” value is “no significant effects in mortality of the embryos were observed”. Moreover, in data set [1] (zebrafish, in vivo, pH 7.4), the “LC50 (95% CI) of LPS after pre-exposure to the modulator” value was 51.6 µg/mL * (48.8–54.5) and the “LC50 (95% CI) of TCHQ after pre-exposure to the modulator” value is on record as 19.6 µM * (16.6–23.3). Besides, the LC50 in data set [3] (exposure window 2–26 hpf) came out at 1870 µM. For the same compound, in data set [2] (setting [8]), the EC50 was 921 µM. For the same compound, the “MTC (maximum tolerable concentration)” value in data set [2] (exposure window 2–26 hpf) was determined as 250 µM.

Turning to `COC(=O)[C@@H](N)CCCNC(N)=N[N+](=O)[O-]` [Nω-nitro L-arginine methyl ester hydrochloride], in data set [1], the “Change of dysmorphogenic effects of LPS” value is “significant reduction in dysmorphogenic effects”; the “Shift of the LPS lethality concentration–effect curve” value is given as “shifted the lethality concentration–effect curves significantly”; the “Shift … for lethality and dysmorphogenesis” value was “significantly shifted to higher concentrations of TCHQ”; the “Mortality of embryos exposed to tBOOH after pre-exposure” value was “no significant effects in mortality of the embryos were observed”. Also, the “Shift … (lethality and dysmorphogenesis)” value in data set [1] is given as “significantly drifted the tBOOH concentration–response curves to higher concentrations”. Besides, in data set [3] (setting [7]), the LC50 was more than 100 µM. For the same compound, the EC50 in data set [2] (setting [8]) worked out at 44.4 µM. Besides, in data set [2] (exposure window 2–26 hpf), the “MTC (maximum tolerable concentration)” value turned out to be 5 µM.

Consider `O=c1c(O)c(-c2ccc(O)c(O)c2)oc2cc(O)cc(O)c12` [Quercetin, quercetin hydrate], for which the LC50 in data set [3] (setting [7]) is more than 30 µM. The “MTC (maximum tolerable concentration)” value in data set [2] (exposure window 2–26 hpf) was found to be 20 µM.

For the compound `CC(C)(C)OO` [Tert-butyl hydroperoxide (tBOOH), Tert-butyl hydroperoxide], the EC50 in data set [4] (read-out: EC50 (95% CI) for dysmorphogenesis of tBOOH) was 1640 µM; in data set [5] it was 1.64 mM; in data set [2] (Danio rerio, exposure window 26–50 hpf, evaluated at 50 hpf) it was 1600 µM.

For the compound `Oc1c(Cl)c(Cl)c(O)c(Cl)c1Cl` [Tetrachlorohydroquinone (TCHQ), Tetrachlorohydroquinone], the values for the EC50 in data set [4] (read-out: EC50 (95% CI) for dysmorphogenesis of TCHQ) and in data set [2] (Danio rerio) were 8.84 µM and 3.9 µM, respectively. For the same compound, the figures for the LC50 in data set [6] and in data set [3] (exposure window 26–50 hpf) were 15.2 µM and 16 µM, respectively. Moreover, the Compound-specific dysmorphogenic effect entry in data set [2] (exposure 26–50 hpf) is given as “produced an effect in the pigmentation of the embryos”.

Take (±)-α-tocopherol [Vit. E]: the “MTC (maximum tolerable concentration)” value in data set [2] (exposure window 2–26 hpf) came to 100 µM. Also, the LC50 in data set [2] (exposure window 2–26 hpf, not calculated, reason in footnote, read-out: LC50 (lethal concentration 50)) was more than 30 µM.
